Test results published in patent US20090062251A1, “Novel Compounds 002” (ASTRAZENECA AB, priority 2007, published 2009).

Target: T1, Human CB1 receptor (hCB1) (Homo sapiens, UniProt P21554)
T1 construct: purchased Receptor Biology
Experiment: hCB1 GTPγS binding
Assay type: biochemical
Conditions: for EC50: hCB1 membranes, GTPγ35S, 10-point dose-response; for Emax / hCB1 EMax: maximal stimulated binding determined with 10 μM Win 55,212-2
Description: hCB1 and hCB2 GTPγS Binding
Human CB1 receptor from Receptor Biology (hCB1) or human CB2 receptor membranes (BioSignal) are thawed at 37° C., passed 3 times through a 25-gauge blunt-end needle and diluted in the GTPγS binding buffer (50 mM Hepes, 20 mM NaOH, 100 mM NaCl, 1 mM EDTA, 5 mM MgCl2, pH 7.4, 0.1% BSA). […] The basal and maximal stimulated binding is determined in absence and presence of 1 μM (hCB2) or 10 μM (hCB1) Win 55, 212-2 respectively. The membranes are pre-incubated for 5 minutes with 56.25 μM (hCB2) or 112.5 μM (hCB1) GDP prior to distribution in plates (15 μM (hCB2) or 30 μM (hCB1) GDP final). The plates are vortexed and incubated for 60 minutes at room temperature, filtered on Unifilters GF/B (presoaked in water) with the Tomtec or Packard harvester using 3 ml of wash buffer (50 mM Tris, 5 mM MgCl2, 50 mM NaCl, pH 7.0). The filters are dried for 1 hour at 55° C. The radioactivity (cpm) is counted in a TopCount (Packard) after adding 65 μl/well of MS-20 scintillation liquid. Antagonist reversal studies are done in the same way except that (a) an agonist dose-response curve is done in the presence of a constant concentration of antagonist, or (b) an antagonist dose-response curve is done in the presence of a constant concentration of agonist.

T1 sequence (P21554 whole entry): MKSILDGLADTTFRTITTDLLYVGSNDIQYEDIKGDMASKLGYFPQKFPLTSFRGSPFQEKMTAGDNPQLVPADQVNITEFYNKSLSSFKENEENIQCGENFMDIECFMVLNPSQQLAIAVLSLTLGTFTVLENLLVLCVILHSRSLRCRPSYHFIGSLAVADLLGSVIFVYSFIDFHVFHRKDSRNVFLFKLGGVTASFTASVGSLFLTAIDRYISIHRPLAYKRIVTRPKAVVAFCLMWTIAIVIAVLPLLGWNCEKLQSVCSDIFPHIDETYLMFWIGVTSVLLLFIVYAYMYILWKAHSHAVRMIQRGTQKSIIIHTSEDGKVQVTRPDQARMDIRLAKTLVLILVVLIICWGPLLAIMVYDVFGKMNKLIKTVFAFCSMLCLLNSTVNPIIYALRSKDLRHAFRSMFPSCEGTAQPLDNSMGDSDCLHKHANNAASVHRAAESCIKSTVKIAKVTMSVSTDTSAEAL

Compound	EC50 [nM]	Emax [%]	hCB1 EMax [%]
CCNC(=O)CN(CC)C(=O)c1ccc2c(c1)c1c(n2CC(=O)N(CC)CC)CCC(C2CCOCC2)C1 (centres unmarked) [9-(diethylcarbamoylmethyl)-N-ethyl-N-(ethylcarbamoylmethyl)-6-(oxan-4-yl)-5,6,7,8-tetrahydrocarbazole-3-carboxamide]	> 10000	> 87	
CCN(CC(=O)NC1CCOCC1)C(=O)c1ccc2c(c1)c1c(n2C)CCC(C2CCOCC2)C1 (centres unmarked) [N-ethyl-9-methyl-6-(oxan-4-yl)-N-(oxan-4-ylcarbamoylmethyl)-5,6,7,8-tetrahydrocarbazole-3-carboxamide]	> 1110	> 88	
CN(C(=O)c1ccc2c(c1)c1c(n2C)CC[C@@H](C2CCOCC2)C1)[C@H](CO)CCC(=O)NC1COC1 [(R)—N-((S)-1-Hydroxy-5-(oxetan-3-ylamino)-5-oxopentan-2-yl)-N,9-dimethyl-3-(tetrahydro-2H-pyran-4-yl)-2,3,4,9-tetrahydro-1H-carbazole-6-carboxamide]	201	119	
CN(CCCC(=O)NCCF)C(=O)c1ccc2c(c1)c1c(n2C)CCC(C2CCOCC2)C1 (centres unmarked) [N-[3-(2-fluoroethylcarbamoyl)propyl]-N,9-dimethyl-6-(oxan-4-yl)-5,6,7,8-tetrahydrocarbazole-3-carboxamide]		121	
CN(C(=O)c1ccc2c(c1)c1c(n2C)CC[C@@H](C2CCOCC2)C1)[C@H](CO)CCC(=O)NCC(F)F [(R)—N-((S)-5-(2,2-Difluoroethylamino)-1-hydroxy-5-oxopentan-2-yl)-N,9-dimethyl-3-(tetrahydro-2H-pyran-4-yl)-2,3,4,9-tetrahydro-1H-carbazole-6-carboxamide]	107	120	
CCN(CC(=O)NC1CC1)C(=O)c1ccc2c(c1)c1c(n2C)CCC(C2CCOCC2)C1 (centres unmarked) [N-(cyclopropylcarbamoylmethyl)-N-ethyl-9-methyl-6-(oxan-4-yl)-5,6,7,8-tetrahydrocarbazole-3-carboxamide]		124	
CCNC(=O)CN(CC)C(=O)c1ccc2c(c1)c1c(n2CC(=O)NC)CCC(C2CCOCC2)C1 (centres unmarked) [N-ethyl-N-(ethylcarbamoylmethyl)-9-(methylcarbamoylmethyl)-6-(oxan-4-yl)-5,6,7,8-tetrahydrocarbazole-3-carboxamide]	> 30000	> 9	
CCS(=O)(=O)n1c2c(c3cc(C(=O)N4CC[C@H](O)C4)ccc31)CC(C1CCOCC1)CC2 (stereo partly drawn) [[9-ethylsulfonyl-6-(oxan-4-yl)-5,6,7,8-tetrahydrocarbazol-3-yl]-[(3S)-3-hydroxypyrrolidin-1-yl]methanone]	4560	105	
CCS(=O)(=O)n1c2c(c3cc(C(=O)N4CCC[C@@H]4C(=O)NCCF)ccc31)CC(C1CCOCC1)CC2 (stereo partly drawn) [(2R)-1-[9-ethylsulfonyl-6-(oxan-4-yl)5,6,7,8-tetrahydrocarbazole-3-carbonyl]-N-(2-fluoroethyl)pyrrolidine-2-carboxamide]	1700	> 107	
CN(C)NC(=O)CCCN(C)C(=O)c1ccc2c(c1)c1c(n2C)CC[C@@H](C2CCOCC2)C1 [(R)—N-(4-(2,2-Dimethylhydrazinyl)-4-oxobutyl)-N,9-dimethyl-3-(tetrahydro-2H-pyran-4-yl)-2,3,4,9-tetrahydro-1H-carbazole-6-carboxamide]	917	96	
Cn1c2c(c3cc(C(=O)N4CC[C@H](NC(=O)C5CC5)C4)ccc31)CC(C1CCOCC1)CC2 (stereo partly drawn) [N-[(3S)-1-[9-methyl-6-(oxan-4-yl)5,6,7,8-tetrahydrocarbazole-3-carbonyl]pyrrolidin-3-yl]cyclopropanecarboxamide]	1150	116	
CN(CC(=O)NC1CC1)C(=O)c1ccc2c(c1)c1c(n2C)CCC(C2CCOCC2)C1 (centres unmarked) [N-(cyclopropylcarbamoylmethyl)-N,9-dimethyl-6-(oxan-4-yl)-5,6,7,8-tetrahydrocarbazole-3-carboxamide]		121	121
CCS(=O)(=O)n1c2c(c3cc(C(=O)N4CCC[C@@H](O)C4)ccc31)CC(C1CCOCC1)CC2 (stereo partly drawn) [[9-ethylsulfonyl-6-(oxan-4-yl)-5,6,7,8-tetrahydrocarbazol-3-yl]-[(3R)-3-hydroxy-1-piperidyl]methanone]	1760	104	
CCNC(=O)CN(CC)C(=O)c1ccc2c(c1)c1c(n2CCO)CCC(C2CCOCC2)C1 (centres unmarked) [N-ethyl-N-(ethylcarbamoylmethyl)-9-(2-hydroxyethyl)-6-(oxan-4-yl)-5,6,7,8-tetrahydrocarbazole-3-carboxamide]	> 3330	> 83	
COCCNC(=O)CCCN(C)C(=O)c1ccc2c(c1)c1c(n2C)CC[C@@H](C2CCOCC2)C1 [(R)—N-(4-(2-Methoxyethylamino)-4-oxobutyl)-N,9-dimethyl-3-(tetrahydro-2H-pyran-4-yl)-2,3,4,9-tetrahydro-1H-carbazole-6-carboxamide]	1210	93	
Cn1c2c(c3cc(C(=O)N4CC[C@H](C(=O)NC5CC5)C4)ccc31)CC(C1CCOCC1)CC2 (stereo partly drawn) [(3S)—N-cyclopropyl-1-[9-methyl-6-(oxan-4-yl)5,6,7,8-tetrahydrocarbazole-3-carbonyl]pyrrolidine-3-carboxamide]		134	
CC(C)NC(=O)CC[C@@H](CO)N(C)C(=O)c1ccc2c(c1)c1c(n2C)CC[C@@H](C2CCOCC2)C1 [(R)—N-((S)-1-Hydroxy-5-(isopropylamino)-5-oxopentan-2-yl)-N,9-dimethyl-3-(tetrahydro-2H-pyran-4-yl)-2,3,4,9-tetrahydro-1H-carbazole-6-carboxamide]	133	129	
CCN(CC(=O)NCCO)C(=O)c1ccc2c(c1)c1c(n2S(=O)(=O)CC)CCC(C2CCOCC2)C1 (centres unmarked) [N-ethyl-9-ethylsulfonyl-N-(2-hydroxyethylcarbamoylmethyl)-6-(oxan-4-yl)-5,6,7,8-tetrahydrocarbazole-3-carboxamide]		111	111
CONC(=O)CCCN(C)C(=O)c1ccc2c(c1)c1c(n2C)CC[C@@H](C2CCOCC2)C1 [(R)—N-(4-(Methoxyamino)-4-oxobutyl)-N,9-dimethyl-3-(tetrahydro-2H-pyran-4-yl)-2,3,4,9-tetrahydro-1H-carbazole-6-carboxamide]	291	104	
CCS(=O)(=O)n1c2c(c3cc(C(=O)N4CC[C@@H](O)C4)ccc31)CC(C1CCOCC1)CC2 (stereo partly drawn) [[9-ethylsulfonyl-6-(oxan-4-yl)-5,6,7,8-tetrahydrocarbazol-3-yl]-[(3R)-3-hydroxypyrrolidin-1-yl]methanone]	> 3160	> 89	
CNC(=O)CCCN(C)C(=O)c1ccc2c(c1)c1c(n2C)CCC(C2CCOCC2)C1 (centres unmarked) [N,9-dimethyl-N-[3-(methylcarbamoyl)propyl]-6-(oxan-4-yl)-5,6,7,8-tetrahydrocarbazole-3-carboxamide]		102	
CCN(CCCC(=O)NCCO)C(=O)c1ccc2c(c1)c1c(n2C)CC[C@@H](C2CCOCC2)C1 [(R)—N-Ethyl-N-(4-(2-hydroxyethylamino)-4-oxobutyl)-9-methyl-3-(tetrahydro-2H-pyran-4-yl)-2,3,4,9-tetrahydro-1H-carbazole-6-carboxamide]	31	113	
CN(CCCC(=O)NCC#N)C(=O)c1ccc2c(c1)c1c(n2C)CC[C@@H](C2CCOCC2)C1 [(R)—N-(4-(Cyanomethylamino)-4-oxobutyl)-N,9-dimethyl-3-(tetrahydro-2H-pyran-4-yl)-2,3,4,9-tetrahydro-1H-carbazole-6-carboxamide]	71	110	
CCNC(=O)CN(CC)C(=O)c1ccc2c(c1)c1c(n2CC(C)(C)O)CCC(C2CCOCC2)C1 (centres unmarked) [N-ethyl-N-(ethylcarbamoylmethyl)-9-(2-hydroxy-2-methyl-propyl)-6-(oxan-4-yl)-5,6,7,8-tetrahydrocarbazole-3-carboxamide]	> 30000	> 34	
CNC(=O)CC[C@@H](CO)N(C)C(=O)c1ccc2c(c1)c1c(n2C)CC[C@@H](C2CCOCC2)C1 [(R)—N-((S)-1-Hydroxy-5-(methylamino)-5-oxopentan-2-yl)-N,9-dimethyl-3-(tetrahydro-2H-pyran-4-yl)-2,3,4,9-tetrahydro-1H-carbazole-6-carboxamide]	101	124	
CN(CCCC(=O)Nn1cccc1)C(=O)c1ccc2c(c1)c1c(n2C)CC[C@@H](C2CCOCC2)C1 [(R)—N-(4-(1H-Pyrrol-1-ylamino)-4-oxobutyl)-N,9-dimethyl-3-(tetrahydro-2H-pyran-4-yl)-2,3,4,9-tetrahydro-1H-carbazole-6-carboxamide]	1050	89	
Cn1c2c(c3cc(C(=O)N4CCC[C@H](C(=O)NC5CC5)C4)ccc31)CC(C1CCOCC1)CC2 (stereo partly drawn) [(3S)—N-cyclopropyl-1-[9-methyl-6-(oxan-4-yl)5,6,7,8-tetrahydrocarbazole-3-carbonyl]piperidine-3-carboxamide]		118	
CCN(CC(=O)NCCF)C(=O)c1ccc2c(c1)c1c(n2C)CCC(C2CCOCC2)C1 (centres unmarked) [N-ethyl-N-(2-fluoroethylcarbamoylmethyl)-9-methyl-6-(oxan-4-yl)-5,6,7,8-tetrahydrocarbazole-3-carboxamide]		108	
